# Entries after “also recorded” stand apart in the source; their conditions may differ. Structures can show the parent of a compound that is named as a salt. Where two headings read alike, the source gives them in different places.
# Columns and labels:
# [1] = test system: p21; assay: p21 fluorescent immunocytochemistry followed by high content cytometry in drug-treated SHSY-5Y cells; assay type: cell-based, Human; settings: neuroblastoma cells
# Protocol: (§1) Human SHSY-5Y neuroblastoma cells were grown in DMEM:F12 supplemented with 10% FCS, penicillin (100 units/mil), streptomycin (100 μg/ml) and L-glutamine. The cells were plated for 24 hours into 96 well plates (5000 cells per well) before treatment with drugs. Each drug (doses applied in separate figures) and the control (DMSO) were applied to 8 technical replicate wells. After 24 hours treatment the cells were harvested by fixation in Glyofix and were post-fixed with ice cold 85% ethanol.
# (§2) For P21^cip staining, the alcohol was aspirated and replaced with 100 μl/well blocking solution (5% BSA in PBST [1:1000 Triton X]) and incubated for 30 minutes at room temperature. After aspirating the blocking solution, 50 μl/well primary antibody solution (monoclonal P21 Abcam, 1:1000 in PBST) was added and incubated over night at 4° C. and PBST was applied as negative control. The next day, the cells were washed by twice aspirating 200 μl/well PBST. Afterwards, 50 μl/well secondary antibody solution (Anti-mouse IgG-FITC, Abcam, 1:200 in PBST) was added, protecting the solutions and plates from light, and incubated overnight at +4° C. The next day, the cells were washed twice with 200 μl/well PBST and stained with propidium iodide solution. […]. The composition of the propidium iodide staining solution was 0.1% Triton-X-100, […] propidium iodide, […] RNase A in PBS. The cells were incubated with the staining solution for 25 minutes at 37° C., and then DNA content based on total fluorescence was measured with a High Content Cytometer (Acumen). This allows rapid analysis of whole 96 well plates with resolution equivalent to a 20× microscope objective. The measurement of p21 content of cells and nuclei was based on the direct measurement of fluorescent intensity.
# [2] = test system: Human SHSY-5Y neuroblastoma cells; assay: High content cytometry apoptosis assay in drug-treated SHSY-5Y cells; assay type: cell-based; settings: 24 hours; for cell death: up to 200 microM
# Protocol: as §1, §2
# [3] = test system: C7, KD2 and KD3 cell lines (SK-N-AS derived); assay: Cell cycle analysis (propidium iodide DNA content cytometry) in drug-treated C7, KD2 and KD3 cells; assay type: cell-based, human; settings: 24 hours, up to 100 μM
# Protocol: The C7 cell suspension were poured into sterile reagent reservoir labelled C7 and using multichannel pipette, 50 μl of cell suspension were dispense into each well. Then 50 μl of 2× culture media was added into each well. Plating was repeated for KD2 and KD3 cell lines. One plate of ‘zero day control’ was also prepared per experiment. On ‘zero day control’ plate, C7 cell line were plated into columns 1, 2, 7 and 8; KD2 cell line were plated into columns 3, 4, 9 and 10; KD3 cell line were plated into columns 5, 6, 11 and 12. Cells were plated at the same density for both ‘zero day control’ and experiment plates. The ‘zero day control’ plate remains untreated and is to be harvested just before the drugs were added into the treatment plates.
# For each drug, 2× working solutions are prepared in culture medium and added to the cultures. The highest drug concentration is 100 μM and final solvent (H2O/DMSO) concentration in the cultures is 1%.
# Using an 8-multichannel pipetor, 100 μl of 2× final drug concentrations were gently dispensed into the culture plates of C7, KD2 and KD3 cells. The time of the treatment was noted and cells were transferred back into 37° C./5% CO2 humidified incubator and were incubated for 24 hours.
# The propidium iodide staining was used to determine the cell cycle phase of the cells based on DNA content.
# To determine cut-offs for cells in different phases of the cell cycle, gate setting was performed based on the G1 and G2 peaks on the DNA content histogram. To determine the G1 and G2 peaks, the 3° total intensity in 20% histograms was analysed for each plate. Gates calculated were manually entered into the Acumen software.
# (§3) The data exported and quantified included separately all cells and single cells. Single cells were further subcategorised into euploid, apoptotic and polyploid cells. Euploid cells were additionally classified into cells in G1 S and G2M phases of the cell cycle.
# [4] = test system: p21cip1; assay: p21cip1 immunostaining and cytometry in drug-treated C7, KD2 and KD3 cells; assay type: cell-based, human
# Protocol: BSA was removed from the plates after 30 minutes incubation. To C7, KD2 and KD3 plates, 50 μl of primary antibody (p21; Abcam ab7903; 1/1000 in PBST) solution was added to each well. On ‘zero day control’ plate, 50 μl of the primary antibody was added to columns 1-6 while columns 7-12 received only 50 μl PBST on each well. These (columns 7-12) serve as a negative controls and will received secondary antibody only. Plates were then wrapped in cling film and were incubated at +4° C. overnight. The following day, p21 primary antibody solution was removed from the plates and cells were washed by adding 200 μl of PBST. This was repeated once (total of 2 washes) and all plates were then subjected to secondary antibody treatment. Secondary antibody solution was made using am IgG-FITC (Abcam ab6785; 1/200 in PBST) and 50 μl was added to each well. Plates were then wrapped in aluminium foil to protect from light and were incubated at +4° C. for 2 hours. The immunostaining was used to measure the content of p21^cip1 in the cells. Measurement was carried out using a laser triggering the 1° channel (bandpass filter 500-530 nm). The total fluorescence intensity from the 1° channel was used to compare total protein levels in the different cell populations defined above. Mean fluorescence intensity per cell (for the whole of the population) and mean fluorescence intensity per cell (for positive cells only) were analysed separately. Additionally the proportion of positive cells in each population was calculated.
# [5] = test system: C7, KD2 and KD3 cell lines (SK-N-AS derived); assay: Apoptotic fraction in p21 positive versus p21 negative cells of drug-treated C7, KD2 and KD3 cultures; assay type: cell-based, human
# Protocol: as §3
# The total fluorescence intensity from the 1° channel was used to compare total protein levels in the different cell populations defined above. Mean fluorescence intensity per cell (for the whole of the population) and mean fluorescence intensity per cell (for positive cells only) were analysed separately. Additionally the proportion of positive cells in each population was calculated.
# [6] = all three cell lines (C7, KD2, KD3)
# [7] = G1 and G2 subpopulations, all three cell lines
# [8] = all cell lines (C7, KD2, KD3), 24 hours
compound,measurement,setting,value
C[C@@H](CN1CC(=O)NC(=O)C1)N1CC(=O)NC(=O)C1 [Dexrazoxane],expression and/or the functional activity of p21,[1],increased
same,p21 expression,"[1]; up to 200 microM, 24 hours",significantly increase
same,cell death,[2],reduce neuronal cells death; also recorded: significantly reduced cell death
same,cell death,[2]; listed as Dexrasoxane,reduce apoptosis; also recorded: significantly reduced cell death
"Cc1cc(C2CCCCC2)n(O)c(=O)c1 [CPX, Ciclopirox Olamine]",cell cycle effects,[3]; [6],slight G1 cell cycle arrest
same,p21 expression,[4]; [7],induces significant p21 expression
same,p21 expression,[4]; [8],up-regulates
same,apoptosis in p21 positive cells relative to p21 negative cells,[5],significant reduction of apoptotic cells; also recorded: reduced cell death
"CN(C)C(=O)C(CCN1CCC(O)(c2ccc(Cl)cc2)CC1)(c1ccccc1)c1ccccc1 [Loperamide, Loperamide hydrochloride]",cell cycle effects,"[3]; all three cell lines (C7, KD2, KD3), hydrochloride",weak G1 inhibitor; also recorded: weak G1 cell cycle arrest
same,p21 expression,[4]; [7],induce
same,p21 expression,[4]; [8],up-regulates
same,apoptosis in p21 positive cells relative to p21 negative cells,[5]; hydrochloride,significant reduction of apoptosis; also recorded: reduces apoptosis significantly
same,apoptosis in p21 positive cells relative to p21 negative cells,"[5]; listed as Loperamide hydrochloride, hydrochloride",significant reduction of apoptosis
CC(C(=O)O)c1ccc(-c2ccccc2)c(F)c1 (racemic) [Flurbiprofen],p21 expression,"[1]; 0.01 and 0.1 microM, 24 hours",significantly increase
same,p21 expression in the nuclear compartment,"[1]; 0.01 and 0.1 microM, 24 hours",significantly increase
same,expression and/or the functional activity of p21,[1],increased
same,apoptotic cell death,[2]; 0.01 and 0.1 microM,reduce apoptosis; also recorded: significantly reduce; also recorded: reduce apoptotic cell death
CC(=O)O[C@H]1C[C@@]2(C)[C@@H](C[C@@H](O)[C@H]3[C@@]4(C)CC[C@@H](O)[C@@H](C)[C@@H]4CC[C@@]32C)/C1=C(\CCC=C(C)C)C(=O)O [Fusidic acid],cell cycle effects,[3]; [6],weak G2 inhibitor
same,p21 expression,[4]; [8],significant increase; also recorded: induces significant p21 expression
same,apoptosis in p21 positive cells relative to p21 negative cells,[5],reduction of apoptosis
"Nc1ccc(S(=O)(=O)c2ccc(N)cc2)cc1 [Dapsone, 4-Aminophenyl sulfone]",cell cycle effects,[3]; [6],No cell cycle effects
same,p21 expression,[4]; [8],significantly up-regulates
same,apoptosis in p21 positive cells relative to p21 negative cells,[5],significant reduction of apoptotic cells
"CCCC(CCC)C(=O)[O-].[Na+] [SV, Sodium Valproate]",cell cycle effects,[3]; C7 cell line,slight G2 arrest; also recorded: not seen
same,cell cycle effects,[3]; KD2 cell line,G1 inhibition; also recorded: slight G1 inhibitor effect
same,cell cycle effects,[3]; KD3 cell line,G1 inhibition; also recorded: slight G1 inhibitor effect
same,p21 protein expression,"[4]; G2 sub-population of cells, 1 μM, 24 hours",significant upregulation
same,p21 expression,[4]; [8],modest
same,apoptosis in p21 positive cells relative to p21 negative cells,[5],significant reduction of apoptotic fraction
"O=C([O-])CCCc1ccccc1.[Na+] [4-PBA, Sodium 4-phenylbutyrate]",cell cycle effects,[3]; [6],no effects
same,p21 expression,"[4]; G2 cell population, all three cell lines",induces; also recorded: relatively small
same,p21 expression,"[4]; G2 cell population, all three cell lines, listed as Sodium 4-phenylbutyrate",induces
same,apoptosis in p21 positive cells relative to p21 negative cells,[5],significantly reduced apoptosis
CCN(CC)CCCC(C)Nc1ccnc2cc(Cl)ccc12 (stereo not shown) [Chloroquine diphosphate],cell cycle effects,[3]; [6],no significant effect
same,cell cycle effects,"[3]; all three cell lines (C7, KD2, KD3), listed as chloroquine diphosphate",no significant cell cycle regulatory effects
same,proportion of protein positive cells,[4]; C7 cells,increased proportion
same,p21 expression,"[4]; C7 cells, G1 and G2M",significantly increased
same,proportion of protein positive cells,[4]; KD2 and KD3 cells,increased
same,p21 expression,"[4]; KD2 cells, G2M phase",up-regulated
same,p21 expression,"[4]; KD3 cell line, G1",upregulation
same,population of positive cells,[4]; all cell lines,increases
same,p21 expression,[4]; [8],up-regulates
same,apoptosis in p21 positive cells relative to p21 negative cells,[5],significantly less likely to be apoptotic; also recorded: significantly reduced cell death

# From US11154550B2, “Treatment for neurodegeneration” (The University of Birmingham, priority 2012, dated 2021)
